Assay results from paper PMC8294059, “Identification and Immune Assessment of T Cell Epitopes in Five Plasmodium falciparum Blood Stage Antigens to Facilitate Vaccine Candidate Selection and Optimization” (Frontiers in Immunology, 2021).
Where a SMILES comes first, the peptide text is derived from it.

Experiments:
Test in all cases: biochemical
Type in all cases: binding
HLA-DRB1*0101 = biological target: T1, HLA-DRB1*0101 (Homo sapiens, UniProt P01903+P01911, A100R/D57E/F55L/F60I/F76Y/I96L/L162R/M171V/P40L/Q125E/R42F/V115G/Y59C); settings: binding inhibition assay; NB = non-binder (no dose-dependent inhibition); read-out: DRB1*0101 IC50
T1 construct: purchased
Procedure, shortened: (§1)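 IC50 values reflect how well each test peptide displaces a labeled high-affinity reference peptide from commercially available HLA-DRB1 allele monomers. Final test concentrations spanned 100,000 nM to 100 nM, with detection by europium-based time-resolved fluorescence after anti-HLA-DR capture.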

HLA-DRB1*0401 = biological target: T2, HLA-DRB1*0401 (Homo sapiens, UniProt P01903+P01911, A100K/A169T/F76Y/I96L/K127E/L162R/M171V/N62H/P40V/Q125Y/R42H/S133A/S149N/S66Y/V115G/V209L/W38E); settings: binding inhibition assay; NB = non-binder (no dose-dependent inhibition); read-out: DRB1*0401 IC50
T2 construct: purchased
Procedure, shortened: as §1

HLA-DRB1*0701 = HLA-DRB1*0701 (Homo sapiens, UniProt P01903+P01911, A100R/A102G/A103Q/D57E/D86V/E43K/F76Y/K127E/L162R/M171V/P40G/Q125H/Q99D/R33Q/R42Y/R54Q/S133A/S66F/T210M/V115G/Y107V/Y59L/Y89S); settings: binding inhibition assay; NB = non-binder (no dose-dependent inhibition); read-out: DRB1*0701 IC50
Procedure, shortened: as §1

HLA-DRB1*0801 = HLA-DRB1*0801 (Homo sapiens, UniProt P01903+P01911, A100R/A103L/A169T/D86S/F76Y/H45Y/I96F/K41T/L162R/M171V/P40S/Q125H/Q178H/Q39Y/Q99D/R218S/R42G/S66Y/V115G/W38E); settings: binding inhibition assay; NB = non-binder (no dose-dependent inhibition); read-out: DRB1*0801 IC50
Procedure, shortened: as §1

HLA-DRB1*1101 = HLA-DRB1*1101 (Homo sapiens, UniProt P01903+P01911, A100R/A169T/A87E/I96F/K41T/L162R/M171V/P40S/Q125H/Q178H/Q39Y/Q99D/R42S/S66Y/T262R/V115G/W38E); settings: binding inhibition assay; NB = non-binder (no dose-dependent inhibition); read-out: DRB1*1101 IC50
Procedure, shortened: as §1

HLA-DRB1*1301 = HLA-DRB1*1301 (Homo sapiens, UniProt P01903+P01911, A100E/A169T/K41T/L162R/M171V/P40S/Q125H/Q178H/Q39Y/Q99D/R42S/S66N/T262R/W38E/Y61H); settings: binding inhibition assay; NB = non-binder (no dose-dependent inhibition); read-out: DRB1*1301 IC50
Procedure, shortened: as §1

HLA-DRB1*1501 = biological target: T3, HLA-DRB1*1501 (Homo sapiens, UniProt P01903+P01911); settings: binding inhibition assay; NB = non-binder (no dose-dependent inhibition); read-out: DRB1*1501 IC50
T3 construct: purchased
Procedure, shortened: as §1

Chain of HLA-DRB1*1101 (P01903 26-254 limits assumed, other chains not shown): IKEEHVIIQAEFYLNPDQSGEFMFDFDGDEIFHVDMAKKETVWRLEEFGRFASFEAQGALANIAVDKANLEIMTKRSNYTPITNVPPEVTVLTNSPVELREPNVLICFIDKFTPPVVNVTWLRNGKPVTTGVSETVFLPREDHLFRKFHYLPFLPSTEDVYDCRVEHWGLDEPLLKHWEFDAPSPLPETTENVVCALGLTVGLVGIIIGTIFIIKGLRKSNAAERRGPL

Row | SMILES | IC50 (HLA-DRB1*0101) [µM] | IC50 (HLA-DRB1*0401) [µM] | IC50 (HLA-DRB1*0701) [µM] | IC50 (HLA-DRB1*0801) [µM] | IC50 (HLA-DRB1*1101) [µM] | IC50 (HLA-DRB1*1301) [µM] | IC50 (HLA-DRB1*1501) [µM]
1 | CC[C@H](C)[C@H](NC(=O)CNC(=O)[C@H](CCC(N)=O)NC(=O)[C@H](CO)NC(=O)[C@H](CO)NC(=O)[C@H](CO)NC(=O)[C@H](Cc1ccc(O)cc1)NC(=O)[C@@H](NC(=O)[C@H](Cc1ccccc1)NC(=O)[C@H](CC(C)C)NC(=O)[C@@H](NC(=O)[C@H](CCCNC(=N)N)NC(=O)[C@H](CC(N)=O)NC(=O)[C@H](CCC(=O)O)NC(=O)[C@H](CC(=O)O)NC(C)=O)[C@@H](C)O)[C@@H](C)CC)C(=O)N[C@@H](Cc1ccc(O)cc1)C(=O)N[C@@H](CC(N)=O)C(=O)N[C@H](C(=O)N[C@@H](Cc1c[nH]cn1)C(=O)N[C@H](C(N)=O)[C@@H](C)O)[C@@H](C)CC [CYRPA_008] (Ac-DENRTLFIYSSSQGIYNIHT-NH2) | 0.004 | 1.05 | 0.219 | 11.5 | 1.13 | 6.98 | 0.05
2 | CC[C@H](C)[C@H](NC(=O)[C@H](CC(=O)O)NC(=O)[C@H](Cc1ccc(O)cc1)NC(=O)[C@H](CCC(=O)O)NC(=O)[C@H](CC(N)=O)NC(=O)[C@H](CCCNC(=N)N)NC(=O)[C@H](C)NC(=O)[C@H](CCCCN)NC(=O)[C@H](C)NC(=O)[C@H](Cc1ccccc1)NC(=O)[C@H](Cc1ccc(O)cc1)NC(=O)[C@H](CC(C)C)NC(=O)[C@@H](NC(=O)[C@H](Cc1ccccc1)NC(=O)[C@H](Cc1ccccc1)NC(=O)[C@H](CO)NC(=O)[C@H](C)NC(C)=O)C(C)C)C(=O)N[C@@H](CCCCN)C(N)=O [EBA175_001B] (Ac-ASFFVLYFAKARNEYDIK-NH2) | 0.678 | 2.27 | 0.421 | 9.88 | 0.52 | 2.24 | 0.265
3 | CC[C@H](C)[C@H](NC(=O)[C@H](CCCNC(=N)N)NC(=O)[C@H](CO)NC(=O)[C@@H](NC(=O)[C@H](CCCNC(=N)N)NC(=O)[C@@H](NC(=O)[C@H](C)NC(=O)[C@H](CC(N)=O)NC(=O)[C@@H](NC(=O)[C@@H]1CCCN1C(=O)[C@@H](NC(=O)[C@H](Cc1ccc(O)cc1)NC(=O)[C@H](CCCCN)NC(=O)[C@H](CC(N)=O)NC(=O)[C@H](CCC(N)=O)NC(=O)[C@H](CCCCN)NC(C)=O)C(C)C)[C@@H](C)CC)C(C)C)C(C)C)C(=O)N[C@@H](CC(C)C)C(=O)N[C@@H](CO)C(=O)N[C@@H](Cc1ccccc1)C(=O)N[C@@H](CC(C)C)C(=O)N[C@@H](CC(=O)O)C(=O)N[C@@H](CO)C(N)=O [EBA175_004] (Ac-KQNKYVPINAVRVSRILSFLDS-NH2) | 0.004 | 18.2 | 0.018 | 6.12 | 0.396 | 1.36 | 2.07
4 | CC[C@H](C)[C@H](NC(=O)[C@H](CO)NC(=O)[C@@H](NC(=O)[C@@H]1CCCN1C(=O)[C@@H](NC(=O)[C@H](CC(=O)O)NC(C)=O)C(C)C)[C@@H](C)CC)C(=O)N[C@H](C(=O)N[C@@H](CCCNC(=N)N)C(=O)N[C@@H](CC(N)=O)C(=O)N[C@@H](CC(N)=O)C(=O)N[C@@H](CCC(=O)O)C(=O)N[C@@H](CCC(N)=O)C(=O)N[C@H](C(=O)N[C@@H](CO)C(=O)N[C@@H](CCC(N)=O)C(=O)N[C@@H](CCC(=O)O)C(=O)N[C@@H](C)C(N)=O)[C@@H](C)O)[C@@H](C)CC [EBA175_014] (Ac-DVPISIIRNNEQTSQEA-NH2) | 6.15 | 3.81 | 13.3 | 18.7 | 16.7 | 14.1 | 3.09
5 | CC[C@H](C)[C@H](NC(=O)[C@H](CC(N)=O)NC(=O)[C@H](Cc1ccc(O)cc1)NC(=O)[C@H](CC(N)=O)NC(=O)[C@H](CO)NC(=O)[C@H](CC(C)C)NC(=O)[C@H](CCC(=O)O)NC(=O)[C@H](CCCCN)NC(=O)[C@H](Cc1ccccc1)NC(=O)[C@H](Cc1c[nH]cn1)NC(=O)[C@H](Cc1ccc(O)cc1)NC(=O)[C@H](CCC(N)=O)NC(=O)[C@@H](N)CC(C)C)C(=O)N[C@@H](C)C(=O)N[C@@H](CC(N)=O)C(=O)N[C@@H](CO)C(=O)N[C@H](C(=O)N[C@@H](CC(=O)O)C(N)=O)[C@@H](C)CC [RH5_005] (H-LQYHFKELSNYNIANSID-NH2) | 0.018 | 2.86 | 3.79 | 19.4 | 11.3 | 50.9 | 0.025
6 | CC[C@H](C)[C@H](NC(=O)[C@H](CS)NC(=O)[C@H](CCCCN)NC(=O)CNC(=O)[C@H](Cc1ccc(O)cc1)NC(=O)[C@@H](NC(=O)[C@H](CO)NC(=O)[C@H](CO)NC(=O)[C@H](CCCCN)NC(=O)[C@H](Cc1c[nH]cn1)NC(=O)[C@H](Cc1ccc(O)cc1)NC(=O)[C@@H](NC(=O)[C@H](CO)NC(=O)[C@H](CC(N)=O)NC(=O)[C@H](Cc1ccc(O)cc1)NC(=O)[C@H](CO)NC(=O)[C@H](CC(C)C)NC(=O)[C@H](Cc1c[nH]cn1)NC(C)=O)[C@@H](C)CC)[C@@H](C)O)C(=O)N[C@@H](C)C(N)=O [RH5_006B] (Ac-HLSYNSIYHKSSTYGKCIA-NH2) | 1.35 | 2.91 | 19.8 | 18.9 | 0.834 | 29.3 | 7.8
7 | CC[C@H](C)[C@H](NC(=O)[C@H](Cc1ccc(O)cc1)NC(=O)[C@@H](NC(=O)[C@H](Cc1ccc(O)cc1)NC(=O)[C@H](CO)NC(=O)CNC(=O)[C@H](CCSC)NC(=O)[C@H](CCCCN)NC(=O)[C@H](CCCCN)NC(=O)[C@H](CC(N)=O)NC(=O)[C@H](CC(C)C)NC(=O)[C@H](CC(N)=O)NC(=O)[C@@H](NC(=O)[C@H](CC(C)C)NC(=O)[C@H](CC(C)C)NC(=O)[C@H](CC(C)C)NC(=O)[C@H](CCC(=O)O)NC(=O)[C@@H](N)CO)[C@@H](C)O)[C@@H](C)CC)C(N)=O [RH5_010B] (H-SELLLTNLNKKMGSYIYI-NH2) | 0.077 | 84 | 41.5 | 6.46 | 0.204 | 9.34 | 9.97
8 | CC[C@H](C)[C@H](NC(=O)[C@H](CC(N)=O)NC(=O)[C@H](CC(N)=O)NC(=O)[C@H](CC(C)C)NC(=O)[C@H](Cc1c[nH]cn1)NC(=O)[C@H](CCCCN)NC(C)=O)C(=O)N[C@@H](Cc1ccccc1)C(=O)N[C@@H](Cc1c[nH]cn1)C(=O)N[C@@H](Cc1c[nH]cn1)C(=O)N[C@@H](CC(C)C)C(=O)N[C@H](C(=O)N[C@@H](Cc1ccc(O)cc1)C(=O)N[C@H](C(=O)N[C@@H](CC(C)C)C(=O)N[C@@H](CCC(N)=O)C(=O)N[C@@H](CCSC)C(=O)N[C@@H](CCCCN)C(N)=O)C(C)C)[C@@H](C)CC [RH5_012] (Ac-KHLNNIFHHLIYVLQMK-NH2) | 0.025 | 7.23 | 24.2 | 91.7 | 33.9 | 8.83 | 7.71
9 | CC[C@H](C)[C@H](NC(=O)[C@H](CCCCN)NC(=O)[C@H](CCC(=O)O)NC(=O)[C@@H](NC(=O)[C@H](CO)NC(=O)[C@H](CC(=O)O)NC(=O)[C@H](CCCNC(=N)N)NC(=O)[C@H](CC(N)=O)NC(=O)[C@H](CC(C)C)NC(=O)[C@@H](NC(=O)[C@@H](NC(=O)[C@H](Cc1ccc(O)cc1)NC(=O)[C@@H](NC(=O)[C@H](Cc1ccc(O)cc1)NC(=O)[C@H](CCCCN)NC(=O)[C@H](CC(N)=O)NC(=O)[C@H](CC(C)C)NC(=O)[C@H](Cc1ccc(O)cc1)NC(=O)[C@H](C)NC(=O)[C@H](Cc1ccc(O)cc1)NC(=O)[C@H](CC(=O)O)NC(C)=O)C(C)C)[C@@H](C)O)[C@@H](C)CC)[C@@H](C)O)C(=O)N[C@@H](CCCCN)C(=O)N[C@H](C(=O)N[C@@H](Cc1ccccc1)C(N)=O)[C@@H](C)O [RIPR_002] (Ac-DYAYLNKYVYTILNRDSTEKIKTF-NH2) | 0.152 | 16.7 | 6.91 | 16.1 | 1.47 | 50.4 | 0.201
